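At the GI50, growth is halved. TGI marks complete inhibition of growth.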
Columns and labels:
Experiment in all cases: NCI anticancer screen, dose series, 384-well format
UACC-62 melanoma = system: UACC-62 melanoma
A549 NSCLC = system: A549 NSCLC
MCF7 breast = system: MCF7 breast
SN12C renal = system: SN12C renal
SF-295 CNS = system: SF-295 CNS
UACC-257 melanoma = system: UACC-257 melanoma
TK-10 renal = system: TK-10 renal
LOX IMVI melanoma = system: LOX IMVI melanoma
MDA-MB-435 melanoma = system: MDA-MB-435 melanoma
M14 melanoma = system: M14 melanoma
CCRF-CEM leukemia = system: CCRF-CEM leukemia
HL-60(TB) leukemia = system: HL-60(TB) leukemia
BT-549 breast = system: BT-549 breast
NCI-H226 lung = system: NCI-H226 lung
NCI-H460 NSCLC = system: NCI-H460 NSCLC
ACHN renal = system: ACHN renal
EKVX NSCLC = system: EKVX NSCLC
DU-145 prostate = system: DU-145 prostate
MDA-MB-468 breast = system: MDA-MB-468 breast
A498 renal = system: A498 renal
SNB-19 CNS = system: SNB-19 CNS
NCI-H522 lung = system: NCI-H522 lung
OVCAR-4 ovarian = system: OVCAR-4 ovarian
OVCAR-8 ovarian = system: OVCAR-8 ovarian
SK-MEL-5 melanoma = system: SK-MEL-5 melanoma
HOP-62 NSCLC = system: HOP-62 NSCLC
T-47D breast = system: T-47D breast
NCI-H23 lung = system: NCI-H23 lung
KM12 colon = system: KM12 colon
RPMI-8226 leukemia = system: RPMI-8226 leukemia
SK-OV-3 ovarian = system: SK-OV-3 ovarian
OVCAR-5 ovarian = system: OVCAR-5 ovarian
HCT-116 colon = system: HCT-116 colon
PC-3 prostate = system: PC-3 prostate
K-562 leukemia = system: K-562 leukemia
MALME-3M melanoma = system: MALME-3M melanoma
SK-MEL-28 melanoma = system: SK-MEL-28 melanoma
UO-31 renal = system: UO-31 renal
HCT-15 colon = system: HCT-15 colon
IGROV1 ovarian = system: IGROV1 ovarian
HCC-2998 colon = system: HCC-2998 colon
MOLT-4 leukemia = system: MOLT-4 leukemia
SK-MEL-2 melanoma = system: SK-MEL-2 melanoma
786-0 renal = system: 786-0 renal
HOP-92 NSCLC = system: HOP-92 NSCLC
MDA-MB-231 breast = system: MDA-MB-231 breast
SF-539 CNS = system: SF-539 CNS

Structure (SMILES): O=C(c1ccccc1O)c1[nH]c(Cl)c(Cl)c1-n1c(C(=O)c2ccccc2O)cc(Cl)c1Cl
- GI50 (UACC-62 melanoma): 599 nM
- TGI (UACC-62 melanoma): 1860 nM
- GI50 (A549 NSCLC): 654 nM
- TGI (A549 NSCLC): 2480 nM
- GI50 (MCF7 breast): 263 nM
- TGI (MCF7 breast): 1230 nM
- GI50 (SN12C renal): 209 nM
- TGI (SN12C renal): 746 nM
- GI50 (SF-295 CNS): 448 nM
- TGI (SF-295 CNS): 1300 nM
- GI50 (UACC-257 melanoma): 461 nM
- TGI (UACC-257 melanoma): 1650 nM
- GI50 (TK-10 renal): 386 nM
- TGI (TK-10 renal): 4.5 µM
- GI50 (LOX IMVI melanoma): 833 nM
- TGI (LOX IMVI melanoma): 2330 nM
- GI50 (MDA-MB-435 melanoma): 801 nM
- TGI (MDA-MB-435 melanoma): 3.05 µM
- GI50 (M14 melanoma): 682 nM
- TGI (M14 melanoma): 2380 nM
- GI50 (CCRF-CEM leukemia): 240 nM
- TGI (CCRF-CEM leukemia): 705 nM
- GI50 (HL-60(TB) leukemia): 257 nM
- TGI (HL-60(TB) leukemia): 572 nM
- GI50 (BT-549 breast): 631 nM
- TGI (BT-549 breast): 1620 nM
- GI50 (NCI-H226 lung): 634 nM
- TGI (NCI-H226 lung): 1890 nM
- GI50 (NCI-H460 NSCLC): 288 nM
- TGI (NCI-H460 NSCLC): 938 nM
- GI50 (ACHN renal): 649 nM
- TGI (ACHN renal): 2780 nM
- GI50 (EKVX NSCLC): 230 nM
- TGI (EKVX NSCLC): 842 nM
- GI50 (DU-145 prostate): 681 nM
- TGI (DU-145 prostate): 8.4 µM
- GI50 (MDA-MB-468 breast): 13 nM
- TGI (MDA-MB-468 breast): 267 nM
- GI50 (A498 renal): 399 nM
- TGI (A498 renal): 1760 nM
- GI50 (SNB-19 CNS): 373 nM
- TGI (SNB-19 CNS): 3.96 µM
- GI50 (NCI-H522 lung): 174 nM
- TGI (NCI-H522 lung): 536 nM
- GI50 (OVCAR-4 ovarian): 936 nM
- TGI (OVCAR-4 ovarian): 4.79 µM
- GI50 (OVCAR-8 ovarian): 276 nM
- TGI (OVCAR-8 ovarian): 959 nM
- GI50 (SK-MEL-5 melanoma): 417 nM
- TGI (SK-MEL-5 melanoma): 913 nM
- GI50 (HOP-62 NSCLC): 552 nM
- TGI (HOP-62 NSCLC): 1590 nM
- GI50 (T-47D breast): 218 nM
- TGI (T-47D breast): 883 nM
- GI50 (NCI-H23 lung): 220 nM
- TGI (NCI-H23 lung): 610 nM
- GI50 (KM12 colon): 537 nM
- TGI (KM12 colon): 1930 nM
- GI50 (RPMI-8226 leukemia): 196 nM
- TGI (RPMI-8226 leukemia): 388 nM
- GI50 (SK-OV-3 ovarian): 641 nM
- TGI (SK-OV-3 ovarian): 2210 nM
- GI50 (OVCAR-5 ovarian): 1440 nM
- TGI (OVCAR-5 ovarian): 4.71 µM
- GI50 (HCT-116 colon): 248 nM
- TGI (HCT-116 colon): 930 nM
- GI50 (PC-3 prostate): 292 nM
- TGI (PC-3 prostate): 978 nM
- GI50 (K-562 leukemia): 238 nM
- TGI (K-562 leukemia): 3.07 µM
- GI50 (MALME-3M melanoma): 670 nM
- TGI (MALME-3M melanoma): 2170 nM
- GI50 (SK-MEL-28 melanoma): 367 nM
- TGI (SK-MEL-28 melanoma): 1430 nM
- GI50 (UO-31 renal): 493 nM
- TGI (UO-31 renal): 1820 nM
- GI50 (HCT-15 colon): 277 nM
- TGI (HCT-15 colon): 1040 nM
- GI50 (IGROV1 ovarian): 521 nM
- TGI (IGROV1 ovarian): 8.56 µM
- GI50 (HCC-2998 colon): 537 nM
- TGI (HCC-2998 colon): 1950 nM
- GI50 (MOLT-4 leukemia): 301 nM
- TGI (MOLT-4 leukemia): 768 nM
- GI50 (SK-MEL-2 melanoma): 333 nM
- TGI (SK-MEL-2 melanoma): 922 nM
- GI50 ([…]-0 renal): 619 nM
- TGI (786-0 renal): 1920 nM
- GI50 (HOP-92 NSCLC): 458 nM
- TGI (HOP-92 NSCLC): 1160 nM
- GI50 (MDA-MB-231 breast): 424 nM
- TGI (MDA-MB-231 breast): 1450 nM
- GI50 (SF-539 CNS): 537 nM
- TGI (SF-539 CNS): 1630 nM

— PubChem BioAssay (NCI)
